Reference: paper PMC9196953 (Drug development research, 1999)
Where two headings read alike, the source gives them in different places.

Experiments:
rat A2A receptors = target: T1, rat A2A receptors (Rattus norvegicus, UniProt P30543); assay: Displacement of [3H]CGS 21680 binding to A2A receptors in rat striatal membranes; conditions: for Ki: read-out: Ki rA2A
T1 construct: to A2A receptors from rat striatal membranes; from tissue; host or cells: rat striatal membranes
Experimental: (§1) All nonradioactive compounds were initially dissolved in DMSO and diluted with buffer to the final concentration, where the amount of DMSO never exceeded 2%. Incubations were terminated by rapid filtration over Whatman GF/B filters using a Brandell cell harvester. The tubes were rinsed three times with 3 mL buffer each.
(§2) At least six different concentrations of competitor, spanning 3 orders of magnitude adjusted appropriately for the IC50 value of each compound, were used. IC50 values, calculated with the nonlinear regression method implemented in Graph-Pad Prism (San Diego, CA) were converted to apparent Ki values as described by [Linden [1982]]. Hill coefficients of the tested compounds were in the range of 0.8–1.1.
(§3) At A2B receptors, two radioligand binding assays (Table 1) were used. Ki values of xanthine derivatives were determined in displacement of binding of the non-selective radioligands […], 8 (4-(2-[7-amino-2-{furyl}{1,2,4}triazolo{2,3-a}{1,3,5}tr nzyl)-8-phenyloxyacetate-1-propyl-xanthine), at human A2B receptors expressed in HEK-293 cell membranes [[Linden and Jacobson, 1998]]. In order to evaluate selectivity, selected derivatives were subjected to standard binding assays at A1, A2A, and A3 receptors. The initial screening utilized rat brain A1/A2A receptors (with radioligands [^3H]R-PIA and [^3H]CGS-21680), and selected compounds were examined at the recombinant human subtypes (Table 1), using [^3H]CPX ([^3H]8-cyclopentyl-1,3-dipropylxanthine) and ^125I-ZM 241385, ^125I-4-(2-[7-amino-2-[2-furyl][1,2,4]triazolo[2,3-a][1,3,5]triazin-5-yl-amino]ethyl)phenol) [[Palmer et al., 1996]].

human A1 receptors = target: T2, human A1 receptors (Homo sapiens, UniProt P30542); assay: Binding at recombinant human A1 receptors expressed in HEK-293 cells vs [3H]CPX; conditions: recombinant human A1 in HEK-293 cells
T2 construct: expressed in transfected cells; host or cells: HEK-293
T2 sequence (P30542 1-326): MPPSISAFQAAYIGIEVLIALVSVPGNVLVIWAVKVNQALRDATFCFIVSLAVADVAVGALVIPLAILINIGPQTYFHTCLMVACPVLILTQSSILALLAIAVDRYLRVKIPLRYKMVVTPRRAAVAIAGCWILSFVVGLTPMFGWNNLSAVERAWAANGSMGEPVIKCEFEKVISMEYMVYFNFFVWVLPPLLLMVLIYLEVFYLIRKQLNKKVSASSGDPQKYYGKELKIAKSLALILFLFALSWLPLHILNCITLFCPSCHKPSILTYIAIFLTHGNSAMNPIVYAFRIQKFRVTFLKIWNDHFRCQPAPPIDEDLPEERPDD
Experimental: as §1, §2, §3

human A3 receptors = target: T3, human A3 receptors (Homo sapiens, UniProt P0DMS8); assay: Binding at recombinant human A3 receptors expressed in HEK-293 cells vs [125I]ABA; conditions: recombinant human A3 in HEK-293 cells, read-out: Ki hA3
T3 construct: expressed in transfected cells; host or cells: HEK-293
T3 sequence (P0DMS8 1-318): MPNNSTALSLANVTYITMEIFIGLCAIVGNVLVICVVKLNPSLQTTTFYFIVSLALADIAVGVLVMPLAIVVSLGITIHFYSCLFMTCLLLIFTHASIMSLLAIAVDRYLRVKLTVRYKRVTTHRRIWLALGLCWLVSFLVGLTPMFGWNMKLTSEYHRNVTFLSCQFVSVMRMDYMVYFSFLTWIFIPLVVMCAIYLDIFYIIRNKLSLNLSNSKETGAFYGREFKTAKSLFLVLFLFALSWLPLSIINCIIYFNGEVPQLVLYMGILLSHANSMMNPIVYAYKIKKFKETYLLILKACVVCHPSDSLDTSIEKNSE
Experimental: as §1, §2, §3

human A2A receptors = target: T4, human A2A receptors (Homo sapiens, UniProt P29274); assay: Binding at recombinant human A2A receptors expressed in HEK-293 cells vs [125I]ZM241385; conditions: recombinant human A2A in HEK-293 cells, read-out: Ki A2A (h) (converted)
T4 construct: expressed in transfected cells; host or cells: HEK-293
T4 sequence (P29274 whole entry): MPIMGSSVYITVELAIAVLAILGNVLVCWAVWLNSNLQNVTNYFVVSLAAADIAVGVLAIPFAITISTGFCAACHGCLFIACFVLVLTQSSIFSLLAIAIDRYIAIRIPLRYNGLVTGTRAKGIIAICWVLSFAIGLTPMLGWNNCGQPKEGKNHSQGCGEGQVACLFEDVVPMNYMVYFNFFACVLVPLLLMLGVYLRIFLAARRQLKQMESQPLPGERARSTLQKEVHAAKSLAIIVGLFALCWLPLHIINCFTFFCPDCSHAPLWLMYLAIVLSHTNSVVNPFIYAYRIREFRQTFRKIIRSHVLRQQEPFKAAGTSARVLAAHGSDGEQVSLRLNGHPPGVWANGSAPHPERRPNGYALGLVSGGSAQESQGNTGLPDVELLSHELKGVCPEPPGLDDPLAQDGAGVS
Experimental: as §1, §2, §3

human A2B receptors = target: T5, human A2B receptors (Homo sapiens, UniProt P29275); assay: Binding at human A2B receptors expressed in HEK-293 cells vs [3H]ZM241385; conditions: for rA1/hA2B: ratio of Ki rat A1 to Ki human A2B
T5 construct: expressed in transfected cells; host or cells: HEK-293
T5 sequence (P29275 1-332): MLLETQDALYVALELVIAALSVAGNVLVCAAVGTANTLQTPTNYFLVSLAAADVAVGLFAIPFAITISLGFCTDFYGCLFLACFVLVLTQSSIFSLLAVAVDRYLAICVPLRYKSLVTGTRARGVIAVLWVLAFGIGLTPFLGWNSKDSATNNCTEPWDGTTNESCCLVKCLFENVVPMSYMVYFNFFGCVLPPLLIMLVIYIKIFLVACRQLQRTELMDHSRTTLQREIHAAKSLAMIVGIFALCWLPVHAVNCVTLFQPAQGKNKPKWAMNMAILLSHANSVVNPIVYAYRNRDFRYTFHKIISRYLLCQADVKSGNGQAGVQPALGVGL
Experimental: The plasmid was amplified in competent JM109 cells and plasmid DNA isolated using Wizard Megaprep columns (Promega Corp., Madison, WI).
Colonies were selected by growth of cells in 0.6 mg/mL G418. Transfected cells were maintained in DMEM supplemented with Hams F12 nutrient mixture (1/1), 10% newborn calf serum, 2 mM glutamine, and containing 50 IU/mL penicillin, 50 μg/mL streptomycin, and 0.2 mg/mL Geneticin (G418, Boehringer Mannheim, Indianapolis, IN).
Confluent monolayers of HEK-A2B cells were washed with PBS followed by ice-cold Buffer A (10 mM HEPES, 10 mM EDTA, pH 7.4) with protease inhibitors ([…] benzamidine, […], and […] of each aprotinin, pepstatin, and leupeptin). The cells were homogenized in a Polytron (Brinkmann) for 20 sec, centrifuged at 30,000g, and the pellets washed twice with buffer HE (10 mM HEPES, 1 mM EDTA, pH 7.4 with protease inhibitors). The final pellet was resuspended in buffer HE, supplemented with 10% sucrose and frozen in aliquots at −80°C. For binding assays, membranes were thawed and diluted 5–10-fold with HE to a final protein concentration of approximately 1 mg/mL. […] After incubating for 20 min at room temperature, 50 mL of 10 mg/mL Na-metabisulfite in water was added the quench the reaction. The reaction products were applied to a C18 HPLC column using 4 mM phosphate, pH 6.0/methanol. […] The incubation time was 3 h at 21°C. […] Membranes were filtered on Whatman GF/C filters using a Brandell cell harvester (Gaithersburg, MD) and washed three times over 15–20 sec with ice-cold buffer (10 mM Tris, 1 mM MgCl2, pH 7.4). […] Data from replicate experiments are tabulated as means ± SEM.
At A2B receptors, two radioligand binding assays (Table 1) were used. […] In order to evaluate selectivity, selected derivatives were subjected to standard binding assays at A1, A2A, and A3 receptors.

[1] = HEK-293 cells, vs [3H]ZM241385, read-out: Ki hA2B

T1 sequence (P30543 whole entry): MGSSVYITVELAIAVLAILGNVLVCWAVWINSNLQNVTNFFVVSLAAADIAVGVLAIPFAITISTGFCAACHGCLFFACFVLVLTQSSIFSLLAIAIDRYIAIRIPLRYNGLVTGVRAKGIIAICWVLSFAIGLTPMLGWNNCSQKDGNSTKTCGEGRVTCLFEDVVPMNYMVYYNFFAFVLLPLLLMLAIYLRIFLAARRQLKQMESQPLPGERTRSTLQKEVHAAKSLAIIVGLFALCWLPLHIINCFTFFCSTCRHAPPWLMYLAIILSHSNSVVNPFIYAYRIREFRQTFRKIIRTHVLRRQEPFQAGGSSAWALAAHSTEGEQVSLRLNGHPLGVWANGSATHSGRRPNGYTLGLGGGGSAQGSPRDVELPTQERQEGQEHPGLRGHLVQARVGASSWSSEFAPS

Row | SMILES | Ki (rat A2A receptors) [nM] | Ki (human A1 receptors) [nM] | Ki (human A3 receptors) [nM] | Ki (human A2A receptors) [nM] | Ki (human A2B receptors; [1]) [nM] | rA1/hA2B (human A2B receptors) | selectivity for human A2B vs. human A1 receptors (human A2B receptors; human A2B vs human A1) [fold] | selectivity for human A2B vs. human A2A receptors (human A2B receptors; human A2B vs human A2A) [fold] | selectivity for human A2B vs. human A3 receptors (human A2B receptors; human A2B vs human A3) [fold] | Ki (human A2B receptors; rounded values given in text, read-out: Ki at human A2B receptors) [nM] | % displacement rA2A (rat A2A receptors; rat striatal membranes, [3H]CGS 21680, at 10^−4) [%]
1 | CCCn1c(=O)c2[nH]c(-c3ccc(OCC(=O)OCC)cc3)nc2n(CCC)c1=O [Compound 4b] | 128 ± 15 | 203 | 48.5 ± 0.8 | 342 | 18.7 ± 0.5 | 2.8 | – | – | – | – | –
2 | CCCn1c(=O)c2[nH]c(-c3ccc(OCC(=O)NNC(C)=O)cc3)nc2n(CCC)c1=O [Compound 4e, 8-[4-[(Carboxymethyl)oxy]phenyl]-1,3-di-(n-propyl)xanthine N-Acetylhydrazide] | 227 ± 64 | 125 | 30.9 ± 8.2 | 186 | 65.4 ± 6.5 | 0.10 | – | – | – | – | –
3 | CCCn1c(=O)c2[nH]c(-c3ccc(OCC(=O)NNC(=O)CCC(=O)O)cc3)nc2n(CCC)c1=O [Compound 9, 8-[4-[(Carboxymethyl)oxy]phenyl]-1,3-di-(n-propyl)xanthine N-[(3-Carboxy)-n-propionyl]hydrazide] | 174 ± 32 | 219 | 173 ± 27 | 795 | 116 ± 10 | – | – | – | – | – | –
4 | CCCn1c(=O)c2[nH]c(-c3ccc(OCC(=O)NN4C(=O)C(C)=C(C)C4=O)cc3)nc2n(CCC)c1=O [Compound 14, 8-[4-[(Carboxymethyl)oxy]phenyl]-1,3-di-(n-propyl)xanthine N,N-[(1,2-Dimethyl)maleyl]hydrazide] | 126 ± 41 | 3030 | 670 ± 154 | 1970 | 19.4 ± 6.2 | 0.57 | 160 | 100 | 35 | 19 | –
5 | CCCn1c(=O)[nH]c(=O)c2[nH]c(-c3ccc(OCC(=O)NN4C(=O)C(C)=C(C)C4=O)cc3)nc21 [Compound 15, 8-[4-[(Carboxymethyl)oxy]phenyl]-1H-3-(n-propyl)xanthine N,N-[(1,2-Dimethyl)maleyl]hydrazide] | – | 8080 | 14200 | 5480 | 1800 | 2.0 | – | – | – | – | 36 ± 4
6 | CCCn1c(=O)c2[nH]c(-c3ccc(OCC(=O)NN4C(=O)c5ccccc5C4=O)cc3)nc2n(CCC)c1=O [Compound 21, 8-[4-[(Carboxymethyl)oxy]phenyl]-1,3-di-(n-propyl)xanthine N,N-Phthaloylhydrazide] | 392 ± 117 | 210 | 147 ± 21 | 359 | 64.4 ± 0.8 | 0.41 | – | – | – | – | –
